From patent US6573263B2, “Substituted imidazotriazinones” (Bayer Aktiengesellschaft, priority 2000, dated 2003) come the findings set out here.

A word on the IC50: it is the concentration at which inhibition is half-maximal. A lower IC50 goes with higher potency. As a reminder, the melting point is the temperature of the solid-liquid transition.

One data set relates to rats. As to the kind of experiment: Object recognition test (memory test). Format: in vivo. As to conditions: rat, dose of 1.0 mg/kg of body weight p.o., 24 hours interval. On the procedure:
The object recognition test is a memory test. It measures the ability of rats (and mice) to differentiate between known and unknown objects and is therefore suitable for the determination of the memory-improving action of the compounds according to the invention.
The test is carried out as described (Blokland et al. NeuroReport 1998, 9, 4205-4208; Ennaceur, A., Delacour, J., Behav. Brain Res. 1988, 31, 47-59; Ennaceur, A., Meliani, K., Psychopharmacology 1992, 109, 321-330; Prickaerts, et al. Eur. J. Pharmacol. 1997, 337, 125-136).
In a first passage, a rat in an otherwise empty relatively large observation arena is confronted with two identical objects. The rat will extensively examine, i.e. sniff and touch, both objects. In a second passage, after an interval of 24 hours, the rat is again tested in the observation arena. One of the known objects is now replaced by a new, unknown object. When a rat recognizes the known object, it will especially examine the unknown object. After 24 hours, a rat, however, has normally forgotten which object it has already examined in the first passage, and will therefore inspect both objects equally intensively. The administration of a substance having learning- and memory-improving action will lead to a rat recognizing the object already seen 24 hours beforehand, in the first passage, as known. […]

Another data set addresses T1, PDE 2 (UniProt P14099).
T1 sequence (P14099 1-921): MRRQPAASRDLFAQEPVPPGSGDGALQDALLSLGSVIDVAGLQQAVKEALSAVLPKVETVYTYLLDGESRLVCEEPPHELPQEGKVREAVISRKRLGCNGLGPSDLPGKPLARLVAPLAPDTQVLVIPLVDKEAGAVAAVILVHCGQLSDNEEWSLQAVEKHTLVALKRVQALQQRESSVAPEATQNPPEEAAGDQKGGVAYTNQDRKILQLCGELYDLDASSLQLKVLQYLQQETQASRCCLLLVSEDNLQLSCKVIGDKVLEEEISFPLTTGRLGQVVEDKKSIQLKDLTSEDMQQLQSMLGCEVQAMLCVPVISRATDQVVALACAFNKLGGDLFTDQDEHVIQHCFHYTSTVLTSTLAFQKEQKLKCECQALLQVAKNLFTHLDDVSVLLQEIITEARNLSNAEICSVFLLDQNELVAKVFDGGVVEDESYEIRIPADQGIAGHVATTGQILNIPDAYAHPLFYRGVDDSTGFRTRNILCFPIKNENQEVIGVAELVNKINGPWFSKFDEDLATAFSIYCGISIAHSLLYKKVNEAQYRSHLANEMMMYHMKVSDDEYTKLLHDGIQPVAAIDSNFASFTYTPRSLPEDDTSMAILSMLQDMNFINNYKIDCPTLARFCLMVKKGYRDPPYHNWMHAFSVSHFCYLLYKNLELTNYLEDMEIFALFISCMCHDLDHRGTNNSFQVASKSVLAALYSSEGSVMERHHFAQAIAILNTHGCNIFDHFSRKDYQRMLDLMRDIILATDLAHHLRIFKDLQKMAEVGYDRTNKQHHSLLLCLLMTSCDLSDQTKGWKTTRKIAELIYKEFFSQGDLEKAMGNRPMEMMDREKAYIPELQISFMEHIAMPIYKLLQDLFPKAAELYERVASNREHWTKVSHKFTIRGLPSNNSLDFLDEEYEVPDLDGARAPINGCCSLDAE
As to the kind of experiment: Measurement of the PDE inhibition (PDE 2, [3H]-cAMP substrate, cGMP prestimulation). Format: biochemical, porcine or bovine. As to conditions: cGMP-stimulated PDE 2. As to the method: The cGMP-stimulable PDE (PDE 2), the cGMP-inhibitable PDE (PDE 3) and the cAMP-specific PDE (PDE 4) were isolated either from porcine or bovine heart myocardium. The Ca^2+ calmodulin-stimulable PDE 1 was isolated from porcine aorta, porcine brain or preferably from bovine aorta. The cGMP-specific PDE (PDE 5) was preferably obtained from porcine small intestine, porcine aorta, human blood platelets and preferably from bovine aorta. Purification was carried out by anion exchange chromatography on mono Q^R Pharmacia essentially according to the method of Hoey, M; Houslay, M. D., Biochem. Pharmacol. 1990, 40, 193-202 and Lugman et al. Biochem. Pharmacol. 1986, 35, 1743-1751.
The enzyme activity was determined in a test batch of 100 μl in 20 mM tris/HCl buffer pH 7.5 which contains 5 mM MgCl2, 0.1 mg/ml of bovine serum albumin and either 800 Bq of [^3H]-cAMP or [^3H]-cGMP. […] 100 μl of the reaction batch are separated on the HPLC and the cleavage products are determined quantitatively online using a flow-through scintillation counter. The substance concentration at which the reaction rate is decreased by 50% is measured. […]
Test substances were dissolved in 100% DMSO (10 mM), and this solution was further diluted with H2O (highest final concentration in the test: 10 μM). […] After the beads had settled (about 15 min), the plate was measured in a beta counter.

In data set [1] the test system is intracellular neuronal cGMP concentration in primary rat brain cell cultures. As to the kind of experiment: Measurement of the increase in the intracellular neuronal cGMP concentration in cell cultures (SNP prestimulation). The class given is cell-based. As to conditions: parallel incubation of neurons with SNP, 37° C., 20 min. An excerpt:
PDE 2 inhibitors increase the intracellular neuronal cGMP concentration after prestimulation of the guanylate cyclase using 10^−4 M sodium nitroprusside (SNP) in primary rat brain cell cultures.
Rat embryos were decapitated and the heads were transferred to preparation dishes. The scalp and cranium were removed, and the exposed brains were transferred to a further Petri dish. With the aid of a binocular microscope and two pairs of forceps, hippocampi were isolated from the cortex and cooled to 4° C. using ice. This preparation and the isolation of the hippocampal neurons were then carried out according to a standard protocol using the papain dissociation system (Worthington Biochemical Corporation, Lakewood, N.J. 08701, USA) (Huettner et al. J. Neurosci. 1986, 6, 3044-3060). The mechanically isolated neurons were cultured under standard conditions (37° C., 5% CO2) to 150,000 cells/hole in 200 μl of neurobasal medium/hole (neurobasal; Gibco/BRL; 2 mM L-glutamine; in the presence of penicillin/streptomycin) for 7 days in 96-hole plates (pretreated with poly-D-lysine 100 μg/ml for 20 min). After 7 days, the medium was removed and the cells were washed with HBS buffer (Gibco/BRL). […] The cells were then lysed in 200 μl of lysis buffer (cGMP kit code RPN 226; from Amersham Pharmacia Biotech.) and the cGMP concentration was measured according to the instructions of the manufacturer. […]

Consider `COc1ccc(Cc2nn3c([C@@H](CCCc4ccccc4)[C@@H](C)O)nc(C)c3c(=O)[nH]2)cc1OC` (single isomer, unassigned) [Example 16], for which the “effect in the object recognition test” value with rats is “shows an effect”.
`COc1ccc(Cc2nn3c(C(CCCc4ccccc4)C(C)=O)nc(C)c3c(=O)[nH]2)cc1` (stereo not shown) [Example 2, 7-(1-Acetyl-4-phenylbutyl)-2-(4-methoxybenzyl)-5-methylimidazo[5,1-f][1,2,4]triazin-4(3H)-one]: the melting point amounted to 138 °C. The IC50 at PDE 2 came to 10 nM.
As for `COc1ccc(Cc2nn3c(C(CCCc4ccccc4)C(C)O)nc(C)c3c(=O)[nH]2)cc1OC` (stereo not shown) [Example 15, 2-(3,4-Dimethoxybenzyl)-7-[1-(1-hydroxyethyl)-4-phenylbutyl]-5-methylimidazo-[5,1-f][1,2,4]triazin-4(3H)-one], the “concentration from which a marked increase in the intracellular cGMP level was seen” value in data set [1] is on record as at least 100 nM.
